According to US12447135B2 (University of South Florida, priority 2021, dated 2025):
“Also recorded” adds a separate entry of the source. Counter-ions that a name gives are not always drawn.

Experiments:
Assay type in all cases: cell-based, human
FFAR2 signaling [1] = test: Western blot of phospho-ERK1/2 in SK-N-SH cells (FFAR2 signal activation); conditions: 10 μM, 30 min
Method: To determine the FFAR2 signal activating property of selected compounds, SK-N-SH cells were treated with 10 μM of shortlisted compounds for 30 min at 37° C. and harvested for total protein extraction. […] After sonication, cell extracts were centrifuged at 8,000×g for 10 min at 4° C., and the supernatant was separated in a fresh tube. The total protein concentration of the supernatant was measured using a BCA protein assay kit. An equal amount of total protein (45 μg) from each sample was dissolved in loading buffer and loaded in 4% stacking gel and 10% separating SDS-PAGE gel and resolved at 100 V. Proteins were transferred on a 0.22 μm PVDF membrane and blots were developed with anti-ERK1/2, anti-phosphoERK1/2, ubiquitin (P4D1), and Aβ (6E10) primary antibodies followed by their secondary antibodies and bands were visualized using the Pierce™ Fast Western Blot Kit, ECL Substrate acquired using Syngene Pxi. Band densities were also quantified using NIH ImageJ software. β-actin was used as an internal control.

FFAR2 signaling [2] = test: cAMP-Glo assay, forskolin-induced cAMP in SK-N-SH cells; conditions: 10 μM compound, 10 μM forskolin
Method: FFAR2 is a Gi/o signaling receptor, which reduces cytosolic cAMP (Falomir-Lockhart et al., 2019). To determine the FFAR2 signaling activating potential of selected compounds, the cAMP-Glo™ Assay was used to measure intracellular cAMP. SK-N-SH cells (1×10^3 cells per well) were plated in a white 96-well plate for 24 h and then treated with 10 μM compounds and 10 μM forskolin (a positive control) dissolved in induction buffer. The cAMP levels were detected using a Luminescence Microplate Reader.

SK-N-SH cells = test: Aβ-induced neurotoxicity, MTT viability assay; conditions: 10 μM CATPB, 25 μM Aβ
Method: To determine the impact of FFAR2 inhibition on Aβ-induced neuronal cell toxicity, the MTT viability assay was performed (Ronicke et al., 2008). SK-N-SH cells (1×10^3 cells per well) were plated in a 96-well plate containing DMEM medium supplemented with 10% FBS and 1% antibiotics and grown at 37° C. for 24 h. Then, media was removed, and cells were washed with PBS before being replenished with DMEM media containing 1% FBS and 10 μM FFAR2 inhibitor (CATPB, Tocris) and incubated at 37° C. for 2 h. Then, cells were treated with Aβ 25-32 peptide (25 μM, Sigma) and incubated for 4 h. Afterward, the media was replaced with 100 μl of fresh media, and 10 μl of MTT reagent (5 mg/ml in phosphate buffer [pH 7.2]) was added and mixed in each well before an additional 4 h incubation. Then, DMSO (50 μl) was added in each well and mixed thoroughly to dissolve formazan crystals. The absorbance was measured at 570 nm.

Molecule: CNCC(O)c1ccc(O)cc1 (centres unmarked) [Synephrine]
- descending order of phospho-ERK1/2 levels (FFAR2 signaling [1]): Fenchol>Octopamine>Carvamenthenol>Camphene>Pentanone>Synephrine>Leucinamide>Carene>α-Terpineol>Breneol>L-Fenchone>D-Fenchone>Norpseudoephedrine HCl

Molecule: Carvamenthenol
- descending order of phospho-ERK1/2 levels (FFAR2 signaling [1]): Fenchol>Octopamine>Carvamenthenol>Camphene>Pentanone>Synephrine>Leucinamide>Carene>α-Terpineol>Breneol>L-Fenchone>D-Fenchone>Norpseudoephedrine HCl
- cAMP upon Forskolin-stimulation, ascending order (FFAR2 signaling [2]): Fenchol<Carvamenthenol<α-Terpineol<Carene<Pentanone<Octopamine<Camphene

Molecule: C=C1C2CCC(C2)C1(C)C (centres unmarked) [Camphene]
- descending order of phospho-ERK1/2 levels (FFAR2 signaling [1]): Fenchol>Octopamine>Carvamenthenol>Camphene>Pentanone>Synephrine>Leucinamide>Carene>α-Terpineol>Breneol>L-Fenchone>D-Fenchone>Norpseudoephedrine HCl
- cAMP upon Forskolin-stimulation, ascending order (FFAR2 signaling [2]): Fenchol<Carvamenthenol<α-Terpineol<Carene<Pentanone<Octopamine<Camphene

Molecule: CC1(C)C(=O)[C@@]2(C)CCC1C2 [D-Fenchone]
- descending order of phospho-ERK1/2 levels (FFAR2 signaling [1]): Fenchol>Octopamine>Carvamenthenol>Camphene>Pentanone>Synephrine>Leucinamide>Carene>α-Terpineol>Breneol>L-Fenchone>D-Fenchone>Norpseudoephedrine HCl

Molecule: CC(C)C[C@H](N)C(N)=O [Leucinamide]
- descending order of phospho-ERK1/2 levels (FFAR2 signaling [1]): Fenchol>Octopamine>Carvamenthenol>Camphene>Pentanone>Synephrine>Leucinamide>Carene>α-Terpineol>Breneol>L-Fenchone>D-Fenchone>Norpseudoephedrine HCl

Molecule: C[C@H](N)[C@@H](O)c1ccccc1 [Norpseudoephedrine HCl]
- descending order of phospho-ERK1/2 levels (FFAR2 signaling [1]): Fenchol>Octopamine>Carvamenthenol>Camphene>Pentanone>Synephrine>Leucinamide>Carene>α-Terpineol>Breneol>L-Fenchone>D-Fenchone>Norpseudoephedrine HCl

Molecule: CC1=CCC(C(C)(C)O)CC1 (stereo not drawn) [α-Terpineol]
- descending order of phospho-ERK1/2 levels (FFAR2 signaling [1]): Fenchol>Octopamine>Carvamenthenol>Camphene>Pentanone>Synephrine>Leucinamide>Carene>α-Terpineol>Breneol>L-Fenchone>D-Fenchone>Norpseudoephedrine HCl
- cAMP upon Forskolin-stimulation, ascending order (FFAR2 signaling [2]): Fenchol<Carvamenthenol<α-Terpineol<Carene<Pentanone<Octopamine<Camphene

Molecule: O=C(O)C[C@H](Cc1ccc(C(F)(F)F)cc1)NC(=O)Cc1cccc(Cl)c1 [CATPB, reference compound]
- Aβ-induced cell death / cell viability under FFAR2 inhibition (SK-N-SH cells): further reduced cell viability; also recorded: further exacerbated Aβ-induced cell death

Molecule: CC1(C)C2CCC1(C)C(O)C2 (centres unmarked) [Breneol]
- descending order of phospho-ERK1/2 levels (FFAR2 signaling [1]): Fenchol>Octopamine>Carvamenthenol>Camphene>Pentanone>Synephrine>Leucinamide>Carene>α-Terpineol>Breneol>L-Fenchone>D-Fenchone>Norpseudoephedrine HCl

Molecule: Carene
- descending order of phospho-ERK1/2 levels (FFAR2 signaling [1]): Fenchol>Octopamine>Carvamenthenol>Camphene>Pentanone>Synephrine>Leucinamide>Carene>α-Terpineol>Breneol>L-Fenchone>D-Fenchone>Norpseudoephedrine HCl
- cAMP upon Forskolin-stimulation, ascending order (FFAR2 signaling [2]): Fenchol<Carvamenthenol<α-Terpineol<Carene<Pentanone<Octopamine<Camphene

Molecule: NCC(O)c1ccc(O)cc1 (centres unmarked) [Octopamine]
- descending order of phospho-ERK1/2 levels (FFAR2 signaling [1]): Fenchol>Octopamine>Carvamenthenol>Camphene>Pentanone>Synephrine>Leucinamide>Carene>α-Terpineol>Breneol>L-Fenchone>D-Fenchone>Norpseudoephedrine HCl
- cAMP upon Forskolin-stimulation, ascending order (FFAR2 signaling [2]): Fenchol<Carvamenthenol<α-Terpineol<Carene<Pentanone<Octopamine<Camphene

Molecule: CC1(C)C(=O)[C@@]2(C)CC[C@H]1C2 [L-Fenchone]
- descending order of phospho-ERK1/2 levels (FFAR2 signaling [1]): Fenchol>Octopamine>Carvamenthenol>Camphene>Pentanone>Synephrine>Leucinamide>Carene>α-Terpineol>Breneol>L-Fenchone>D-Fenchone>Norpseudoephedrine HCl
